In one experiment the target is ALK L1196M (Homo sapiens (Human), UniProt Q9UM73, L1196M). The experiment in a line: Inhibition of ALK L1196M kinase activity (Caliper mobility shift). Type of experiment: biochemical. As for the experimental part:
(§1) Inhibition of Compound I Against ALK Kinase Activity
(§2) • I. Preparation of 1× kinase buffer and stop buffer
(§3) 1) 1× Kinase Buffer • 50 mM HEPES. pH 7.5 • 0.0015% Brij-35 • 10 mM MgCl2 • 2 mM DTT • 2) stop buffer • 100 mM HEPES, pH 7.5 • 0.015% Brij-35 • 0.2% Coating Reagent #3 • 50 mM EDTA
(§4) 2. Prepare a Compound Solution to be Tested • Step 2.1 Dilute the compound to 50× of the final desired highest inhibitor concentration in reaction by 100% DMSO. Transfer 100 μl of this compound dilution to a well in a 96-well plate. For example, if desired highest inhibitor concentration is 1 μM, then prepare 50 μM of compound DMSO solution in this step.
(§5) Step 2.2 Further dilute said compound dilution by 3-fold in series, thus obtain 10 concentrations.
(§6) Step 2.3 Add 100 μl of 100% DMSO to two empty wells for no compound control and no enzyme control in the same 96-well plate. Mark the plate as source plate.
(§7) Step 2.4 Prepare an intermediate plate
(§8) Transfer 10 μl of each compound from the source plate to a new 96-well plate as the intermediate plate.
(§9) Add 90 μl of 1× kinase buffer to each well of the intermediate plate. Mix the compounds in the intermediate plate for 10 min on a shaker.
(§10) Transfer 5 μl of each well from the 96-well intermediate plate to a 384-well plate in duplicate. For example, A1 of the 96-well plate is transferred to A1 and A2 of the 384-well plate. A2 of the 96-well plate is transferred to A3 and A4 of the 384-well plate, and so on.
(§11) 4.1 Prepare a 2.5× kinase solution
(§12) Add kinase in 1× kinase base buffer, thus obtain the 2.5× kinase solution.
(§13) 4.2 Prepare a 2.5× peptide solution
(§14) 4.3 In each well of the assay plate obtained in step 3, there was 5 μL of the compound in 10% DMSO.
(§15) 4.4 Transfer the 2.5× enzyme solution to the assay plate.
(§16) 4.5 Incubate at room temperature for 10 min.
(§17) 4.6 Transfer the 2.5× peptide solution to the assay plate.
(§18) 4.7 Kinase reaction and stop
(§19) Incubate at 28° C. for 20 min.
(§20) Add 25 μl of stop buffer to stop reaction.
(§21) Conversion rate of the kinase was read via the Caliper.
(§22) 6.1 Copy conversion data from Caliper program.
(§23) 6.2 Convert conversion values to inhibition values with the following formula: Percent inhibition=(max−conversion)/(max−min)*100
(§24) where “max” stands for DMSO control; and “min” stands for low control.
(§25) 6.3 Fit the data in XLfit excel add-in version 4.3.1 and obtain IC50 values according to the following formula: Y=Bottom+(Top−Bottom)/[…].

In the next experiment the target is ALK (Homo sapiens (Human), UniProt Q9UM73). Briefly: Inhibition of ALK kinase activity (Caliper mobility shift). Type of experiment: biochemical. The protocol:
as §1, §2, §3, §4, §5, §6, §7, §8, §9, §10, §11, §12, §13, §14, §15, §16, §17, §18, §19, §20, §21, §22, §23, §24, §25

Another experiment has as its system Ba/F3 EML4-ALK cells. The experiment in a line: Suppression of Ba/F3 EML4-ALK cell proliferation (CellTiter-Glo). It counts as cell-based. The settings on record: 3 days incubation. From the text: Cell media: RPMI-1640 medium, fetal calf serum (FCS), antibiotics (Penicillin-Streptomycin), IL-3, puromycin
Cell line: Ba/F3 EML4-ALK
Assay reagent: Cell Viability Assay Kit Celliter-Glo
(§26) Others: a 96-well plate, a 384-well plate, DMSO
(§27) As the amount of ATP can indicate the number of living cells directly, the living cells in medium are able to be quantified by determining the ATP level. In our experiment, we use a cell viability assay kit to quantify the living cells, which utilizes UltraGlow luciferase to generate a stable glow signal in the presence of ATP which is produced by metabolism of living cells, such as respiration. Specifically, a reagent CellTiter-Glo™ was added into cell culture media, and then the luminescent intensity was determined to measure proliferation of cells, as the luminescent intensity is in direct proportion to the ATP level which correlates positively to the number of living cells. The test plate was assayed by the Envision (PE).
(§28) Step 3.1 Culturing test cells
Ba/F3 EML4-ALK cells were planted into a 384-well plate, with almost 300 cells per well. The plate was placed in a carbon dioxide incubator overnight.
(§29) Step 3.2 Preparation of the compounds to be tested
10 concentrations of the working solutions were obtained in duplicate by dilution in 3-fold series with BRAVO.
Step 3.3 Mixing the compound to be tested with the test cells
The compounds to be tested at individual working concentrations were transferred into corresponding wells in the 384-well plate in the step 3.1, with 5 μM as the initial working concentration, and then the 384-well plate was incubated in the carbon dioxide incubator for 3 days.
To each well of the 384-well plate was added the reagent Promega CellTiter-Glo, and incubated at room temperature for 10 minutes to stabilize the luminescence signal. The results were read by the PerkinElmer Envision Multi-mode Plate Reader.
(In general: ATP-based viability assays read luminescence as a measure of living cells.)

A further experiment deals with Karpas299 cells. Briefly: Suppression of Karpas299 cell proliferation (CellTiter-Glo). Type of experiment: cell-based. To be noted: 3 days incubation, read-out: Inhibition activity on Karpas299 cells IC50. As for the experimental part: as §27, with “culture” for “medium”, “living-cell testing” for “cell viability assay”, “tested with” for “assayed by”
Cell media: RPMI-1640 medium, fetal calf serum (FCS), antibiotics (Penicillin-Streptomycin)
Assay reagent: Cell Viability Assay Kit CellTiter-Glo
as §26, §28
Karpas 299 cells were plated into a black 384-well plate, with 2500 cells in 45 μl cell suspension per well. The plate was placed in a carbon dioxide incubator overnight.
as §29
Each compound to be tested was dissolved in DMSO at 10 mM as the stock solution, which was left in a nitrogen-gas tank for storage.
After dilution of 10 μL stock solution (10 mM) into 2.5 mM as a starting working solution, 10 concentrations of the working solutions from 5 μM to 0.25 nM were obtained in duplicate by further dilution in 3-fold series with ECHO.
Step 3.3 Mixing the compound with the test cells
To each well of a new 96-well plate were added 49 μl medium and 1 μl of the compounds to be tested at individual working concentrations (10 concentrations in total). After oscillation,
5 μl of mixture in each well of the 96-well plate was transferred into corresponding wells in the 384-well plate in the step 3.1. The 384-well plate was incubated in the carbon dioxide incubator for 3 days.
To each well of the 384-well plate was added […] reagent Promega CellTiter-Glo. and incubated at room temperature for 10 minutes to stabilize the luminescence signal. The results were read with the PerkinElmer Envision Multi-mode Plate Reader.

Read-outs that look alike come from different tables or passages of the source.

The values that follow come from patent US10695347B2, “Pyrimidine derivative and use thereof” (Hubei Bio-Pharmaceutical Industrial Technological Institute …, priority 2015, dated 2020).

Sequence of ALK (Q9UM73 19-1620): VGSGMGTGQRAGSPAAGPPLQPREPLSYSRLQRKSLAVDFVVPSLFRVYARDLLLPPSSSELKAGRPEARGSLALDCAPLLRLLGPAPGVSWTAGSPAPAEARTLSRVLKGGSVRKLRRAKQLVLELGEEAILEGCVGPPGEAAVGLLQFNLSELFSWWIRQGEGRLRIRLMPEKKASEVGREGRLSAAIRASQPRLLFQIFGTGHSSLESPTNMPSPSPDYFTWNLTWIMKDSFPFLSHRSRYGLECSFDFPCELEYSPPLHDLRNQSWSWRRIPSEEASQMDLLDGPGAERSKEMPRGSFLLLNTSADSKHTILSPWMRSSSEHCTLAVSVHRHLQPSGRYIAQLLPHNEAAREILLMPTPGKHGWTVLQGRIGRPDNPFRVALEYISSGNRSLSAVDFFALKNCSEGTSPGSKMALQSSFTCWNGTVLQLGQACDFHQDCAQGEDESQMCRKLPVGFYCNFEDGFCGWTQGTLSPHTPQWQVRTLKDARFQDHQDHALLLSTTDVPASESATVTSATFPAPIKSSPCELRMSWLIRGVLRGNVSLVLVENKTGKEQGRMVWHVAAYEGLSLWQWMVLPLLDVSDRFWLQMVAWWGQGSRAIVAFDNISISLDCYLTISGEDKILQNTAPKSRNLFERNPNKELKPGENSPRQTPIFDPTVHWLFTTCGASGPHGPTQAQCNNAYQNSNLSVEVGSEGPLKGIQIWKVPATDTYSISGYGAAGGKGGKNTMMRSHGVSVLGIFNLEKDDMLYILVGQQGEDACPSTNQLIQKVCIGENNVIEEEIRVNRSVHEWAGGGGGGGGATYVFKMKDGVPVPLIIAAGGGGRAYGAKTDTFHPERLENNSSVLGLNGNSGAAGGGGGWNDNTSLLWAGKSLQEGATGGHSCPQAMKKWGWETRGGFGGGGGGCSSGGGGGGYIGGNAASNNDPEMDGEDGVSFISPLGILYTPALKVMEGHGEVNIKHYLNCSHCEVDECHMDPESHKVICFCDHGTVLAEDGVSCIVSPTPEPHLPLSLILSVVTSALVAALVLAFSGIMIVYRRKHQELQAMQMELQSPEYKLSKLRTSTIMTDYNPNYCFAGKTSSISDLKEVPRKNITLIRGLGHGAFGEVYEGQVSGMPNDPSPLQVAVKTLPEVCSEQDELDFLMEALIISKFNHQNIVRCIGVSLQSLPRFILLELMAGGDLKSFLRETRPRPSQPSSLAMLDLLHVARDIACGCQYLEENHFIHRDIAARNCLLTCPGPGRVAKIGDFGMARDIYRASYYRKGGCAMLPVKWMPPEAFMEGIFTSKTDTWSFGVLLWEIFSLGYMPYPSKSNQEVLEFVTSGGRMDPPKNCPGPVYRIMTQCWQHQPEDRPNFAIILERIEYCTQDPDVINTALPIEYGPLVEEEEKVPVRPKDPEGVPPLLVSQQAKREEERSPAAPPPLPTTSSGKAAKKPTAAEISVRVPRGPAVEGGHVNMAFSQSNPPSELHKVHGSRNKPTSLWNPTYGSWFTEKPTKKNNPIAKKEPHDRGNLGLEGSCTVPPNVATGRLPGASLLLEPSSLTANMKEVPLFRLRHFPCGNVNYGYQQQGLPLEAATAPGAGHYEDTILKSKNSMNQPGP
Sequence of ALK L1196M (Q9UM73 19-1620 L1196M): as the sequence (Q9UM73 19-1620) above, with L1178M counted along it

As for `COc1cc(N2CCC(N3CCC(N(C)C)CC3)CC2)ccc1Nc1ncc(Cl)c(Nc2ccsc2S(=O)(=O)C(C)C)n1` [Compound I-18], the IC50 (commonly the concentration that inhibits the measured activity by half) was 1 to 10 nM at ALK L1196M; 1 to 10 nM on ALK; below 20 nM with Ba/F3 EML4-ALK cells (Ba/F3 EML4-ALK, 72 h); below 50 nM in the experiment on Karpas299 cells (Homo sapiens, KARPAS-299, 72 h).
Regarding `CC(C)Oc1cc(N2CCC(N(C)C)CC2)ccc1Nc1ncc(Cl)c(Nc2cccnc2S(=O)(=O)C(C)C)n1` [Compound I-91], the IC50 on ALK L1196M is 1 to 10 nM; on ALK, 1 to 10 nM; in the experiment with Ba/F3 EML4-ALK cells (Ba/F3 EML4-ALK, 72 h) it was below 20 nM; in the experiment on Karpas299 cells (Homo sapiens, KARPAS-299, 72 h) it was 50 to 100 nM.
On to `COc1cc(N2CCC(N(C)C)CC2)ccc1Nc1ncc(OC(F)F)c(Nc2ccccc2S(=O)(=O)C(C)C)n1` [Compound I-111, 5-(difluoromethoxy)-N^2-(4-(4-(dimethylamino)piperidin-1-yl)-2-methoxyphenyl)-N^4-(2-(isopropylsulfonyl)phenyl) pyrimidine-2,4-diamine], for which the IC50 is below 1 nM at ALK L1196M; below 1 nM on ALK; below 20 nM in the experiment on Ba/F3 EML4-ALK cells (Ba/F3 EML4-ALK, 72 h); below 50 nM in the experiment on Karpas299 cells (Homo sapiens, KARPAS-299, 72 h).
Regarding `COc1cc(N2CCC(N(C)C)CC2)c(C)cc1Nc1ncc(Cl)c(Nc2cccnc2S(=O)(=O)C(C)C)n1` [Compound I-98, 5-chloro-N^2-(4-(4-(dimethylamino)piperidin-1-yl)-2-methoxy-5-methylphenyl)-N^4-(2-(isopropylsulfonyl)pyridin-3-yl) pyrimidine-2,4-diamine], the IC50 at ALK L1196M is below 1 nM; at ALK, below 1 nM; in the experiment with Ba/F3 EML4-ALK cells (Ba/F3 EML4-ALK, 72 h), 20 to 100 nM; in the experiment on Karpas299 cells (Homo sapiens, KARPAS-299, 72 h), below 50 nM.
Regarding `COc1cc(N2CCN(C(C)C)CC2)c(C)cc1Nc1ncc(OC(F)F)c(Nc2ccccc2S(=O)(=O)C(C)C)n1` [Compound I-115, 5-(difluoromethoxy)-N^2-(4-(4-isopropylpiperazin-1-yl)-2-methoxy-5-methylphenyl)-N^4-(2-(isopropylsulfonyl)phenyl) pyrimidine-2,4-diamine], the IC50 on ALK L1196M is below 1 nM; at ALK, below 1 nM; with Ba/F3 EML4-ALK cells, below 20 nM; in the experiment on Karpas299 cells, below 50 nM.
With `CC(C)Oc1cc(N2CCC(N(C)C)CC2)ccc1Nc1ncc(OC(F)F)c(Nc2ccccc2S(=O)(=O)C(C)C)n1` [Compound I-113, 5-(difluoromethoxy)-N^2-(4-(4-(dimethylamino)piperidin-1-yl)-2-isopropoxyphenyl)-N^4-(2-(isopropylsulfonyl)phenyl) pyrimidine-2,4-diamine], the IC50 was below 1 nM at ALK L1196M; below 1 nM on ALK; below 20 nM in the experiment with Ba/F3 EML4-ALK cells (Ba/F3 EML4-ALK, 72 h); below 50 nM with Karpas299 cells (Homo sapiens, KARPAS-299, 72 h).
With `COc1cc(CN2CCC(N(C)C)CC2)ccc1Nc1ncc(Cl)c(Nc2ccccc2S(=O)(=O)C(C)C)n1` [Compound I-110], the IC50 is 1 to 10 nM at ALK L1196M, 1 to 10 nM on ALK, below 20 nM in the experiment on Ba/F3 EML4-ALK cells and below 50 nM in the experiment on Karpas299 cells.
Take “5-chloro-N^2-(2-isopropoxy-5-methyl-4-(1,2,3,6-tetrahydropiperidin-4-yl) phenyl)-N^4-(2-isopropylsulfonyl) pyridin-3-yl) pyrimidine-2,4-diamine [Compound I-90]”: the IC50 on ALK L1196M is 1 to 10 nM; on ALK it was 1 to 10 nM; in the experiment on Ba/F3 EML4-ALK cells, below 20 nM; in the experiment with Karpas299 cells, below 50 nM.
On to `COc1cc(N2CCC(N3CCN(C)CC3)CC2)ccc1Nc1ncc(Cl)c(Nc2ccsc2S(=O)(=O)C(C)C)n1` [Compound I-11], for which the IC50 was 1 to 10 nM at ALK L1196M; 1 to 10 nM on ALK; below 20 nM in the experiment with Ba/F3 EML4-ALK cells (Ba/F3 EML4-ALK, 72 h); below 50 nM in the experiment with Karpas299 cells (Homo sapiens, KARPAS-299, 72 h).
Turning to `COc1cc(N2CCC(N3CCOCC3)CC2)ccc1Nc1ncc(Cl)c(Nc2cccnc2S(=O)(=O)C(C)C)n1` [Compound I-7], the IC50 on ALK L1196M was 1 to 10 nM; on ALK it was 1 to 10 nM; with Ba/F3 EML4-ALK cells (Ba/F3 EML4-ALK, 72 h) it was below 20 nM; in the experiment on Karpas299 cells (Homo sapiens, KARPAS-299, 72 h), below 50 nM.
With `CC(C)Oc1cc(N2CCC(N(C)C)CC2)ccc1Nc1ncc(Cl)c(Nc2ccsc2S(=O)(=O)C(C)C)n1` [Compound I-82, 5-chloro-N^2-(4-(4-(dimethylamino)piperidin-1-yl)-2-isopropoxyphenyl)-N^4-(2-(isopropylsulfonyl)thiophen-3-yl) pyrimidine-2,4-diamine], the IC50 at ALK L1196M is below 1 nM; on ALK, below 1 nM; in the experiment on Ba/F3 EML4-ALK cells (Ba/F3 EML4-ALK, 72 h), 20 to 100 nM; with Karpas299 cells (Homo sapiens, KARPAS-299, 72 h), below 50 nM.
Regarding `COc1cc(N2CCC(N(C)C)CC2)c(C)cc1Nc1ncc(OC(F)F)c(Nc2ccccc2S(=O)(=O)C(C)C)n1` [Compound I-112, 5-(difluoromethoxy)-N^2-(4-(4-(dimethylamino)piperidin-1-yl)-2-methoxy-5-methylphenyl)-N^4-(2-(isopropylsulfonyl)phenyl) pyrimidine-2,4-diamine], the IC50 on ALK L1196M is below 1 nM; at ALK, below 1 nM; in the experiment on Ba/F3 EML4-ALK cells (Ba/F3 EML4-ALK, 72 h), below 20 nM; with Karpas299 cells (Homo sapiens, KARPAS-299, 72 h) it was below 50 nM.
As for `COc1cc(N2CCC(N3CC(C)OC(C)C3)CC2)ccc1Nc1ncc(Cl)c(Nc2ccccc2S(=O)(=O)C(C)C)n1` (stereo not drawn) [Compound I-17], the IC50 at ALK L1196M is 1 to 10 nM; at ALK, 1 to 10 nM; in the experiment with Ba/F3 EML4-ALK cells (Ba/F3 EML4-ALK, 72 h) it was below 20 nM; in the experiment on Karpas299 cells (Homo sapiens, KARPAS-299, 72 h), below 50 nM.
On to `COc1cc(N2CCN(C)CC2)ccc1Nc1ncc(Cl)c(Nc2cccnc2S(=O)(=O)C(C)C)n1` [Compound I-5], for which the IC50 on ALK L1196M was 1 to 10 nM; on ALK, 1 to 10 nM; in the experiment with Ba/F3 EML4-ALK cells (Ba/F3 EML4-ALK, 72 h), below 20 nM; in the experiment with Karpas299 cells (Homo sapiens, KARPAS-299, 72 h), below 50 nM.
Turning to `COc1cc(N2CCN(C(C)C)CC2)ccc1Nc1ncc(Cl)c(Nc2cccnc2S(=O)(=O)C(C)C)n1` [Compound I-23], the IC50 on ALK L1196M was 1 to 10 nM; on ALK, 1 to 10 nM; in the experiment with Ba/F3 EML4-ALK cells (Ba/F3 EML4-ALK, 72 h), below 20 nM; in the experiment with Karpas299 cells (Homo sapiens, KARPAS-299, 72 h), below 50 nM.
